Experimental data taken from ChEMBL document CHEMBL1143211, “Inhibitors of proteases and amide hydrolases that employ an alpha-ketoheterocycle as a key enabling functionality” (Bioorg Med Chem, 2008).
Where a SMILES comes first, the peptide text is derived from it. [ ]: non-standard residue; d: D form. The star is where a group is joined. Pyrazinecarbonyl = O=C(c1cnccn1)*; Hyp = O=C(O)[C@@H]1C[C@@H](O)CN1; Abu = CC[C@H](N)C(=O)O; Bn = c1ccc(C*)cc1

Key:
[1] = Inhibition of Staphylococcus aureus methionine aminopeptidase
[2] = Selectivity for rat FAAH over carboxylesterase 1 lipase
[3] = Selectivity for rat FAAH over triacylglycerol hydrolase
[4] = Selectivity for rat FAAH over monoacylglycerol lipase
[5] = Selectivity for rat FAAH over lipoprotein lipase
[6] = target: T1, Fatty-acid amide hydrolase 1 (Rattus norvegicus, UniProt P97612)
T1 sequence (P97612 whole entry): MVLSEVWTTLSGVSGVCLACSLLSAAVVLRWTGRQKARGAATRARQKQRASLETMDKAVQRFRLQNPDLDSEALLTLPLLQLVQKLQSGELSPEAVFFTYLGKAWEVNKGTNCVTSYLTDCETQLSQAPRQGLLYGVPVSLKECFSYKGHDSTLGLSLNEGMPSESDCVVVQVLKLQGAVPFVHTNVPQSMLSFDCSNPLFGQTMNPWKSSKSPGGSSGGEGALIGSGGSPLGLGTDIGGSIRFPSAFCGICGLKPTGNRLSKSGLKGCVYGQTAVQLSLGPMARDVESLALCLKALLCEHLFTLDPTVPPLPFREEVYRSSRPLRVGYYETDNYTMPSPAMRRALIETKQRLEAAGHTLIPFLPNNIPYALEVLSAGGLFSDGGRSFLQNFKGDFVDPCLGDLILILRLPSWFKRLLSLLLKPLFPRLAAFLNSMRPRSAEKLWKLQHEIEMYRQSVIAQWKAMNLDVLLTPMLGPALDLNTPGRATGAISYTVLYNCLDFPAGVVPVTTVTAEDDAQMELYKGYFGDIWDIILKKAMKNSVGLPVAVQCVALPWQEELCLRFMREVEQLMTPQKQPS

[7] = Selectivity for human neutrophil elastase over cathepsinn G
[8] = Selectivity for human neutrophil elastase over trypsin
[9] = Selectivity for human neutrophil elastase over chymotrypsin
Mus musculus = test: Analgesic activity in iv dosed mouse; format: functional
Trypsin = Trypsin (Homo sapiens, UniProt P07477+P07478+P35030); test: Inhibition of human trypsin at 100 uM; format: protein assay
[10] = Inhibition of HCV NS34A protease; parameters: species or system Hepacivirus hominis
[11] = Inhibition of Trypanosoma cruzi prolyl endopeptidase Tc80
[12] = Inhibition of post-glutamyl peptide hydrolase-like activity of human 20S proteasome
[13] = Inhibition of trypsin-like activity of human 20S proteasome
PC-3 = test: Growth inhibition of human PC3 cells; format: functional, cell-based
[14] = Selectivity for Porphyromonas gingivalis arginine gingipain over trypsin
[15] = Inhibition of Porphyromonas gingivalis arginine gingipain
[16] = Selectivity for Porphyromonas gingivalis arginine gingipain over cathepsin B
Beta-lactamase = Beta-lactamase (Enterobacter cloacae, UniProt P05364); test: Inhibition of Enterobacter cloacae beta lactamase
Coagulation factor XII = Coagulation factor XII (Homo sapiens, UniProt P00748); test: Inhibition of factor 12a
Plasma kallikrein = Plasma kallikrein (Homo sapiens, UniProt P03952); test: Inhibition of kallikrein
[17] = Selectivity for human alpha-thrombin over uPA
Platelet = test: Antithrombotic activity assessed as inhibition of alpha-thrombin-induced human platelet aggregation; format: functional, cell-based
[18] = Selectivity for human alpha-thrombin over tissue plasminogen activator
[19] = Selectivity for human alpha-thrombin over factor 10a
[20] = Selectivity for human alpha-thrombin over bovine trypsin
[21] = Inhibition of human beta-tryptase
[22] = Selectivity for human alpha-thrombin over plasmin
[23] = Selectivity for human chymase over cathepsin G
[24] = Selectivity for human chymase over bovine chymotrypsin
Chymase = Chymase (Homo sapiens, UniProt P23946)
[25] = Oral bioavailability in rat; format: ADME, organism-based; conditions: in vivo
Coagulation factor X = Coagulation factor X (Homo sapiens, UniProt P00742); test: Inhibition of human factor 10a
[26] = target: Tissue-type plasminogen activator (Homo sapiens, UniProt P00750); test: Inhibition of tPA
Plasminogen = Plasminogen (Homo sapiens, UniProt P00747); test: Inhibition of plasmin
Plasminogen, sequence (P00747 97-580 limits assumed): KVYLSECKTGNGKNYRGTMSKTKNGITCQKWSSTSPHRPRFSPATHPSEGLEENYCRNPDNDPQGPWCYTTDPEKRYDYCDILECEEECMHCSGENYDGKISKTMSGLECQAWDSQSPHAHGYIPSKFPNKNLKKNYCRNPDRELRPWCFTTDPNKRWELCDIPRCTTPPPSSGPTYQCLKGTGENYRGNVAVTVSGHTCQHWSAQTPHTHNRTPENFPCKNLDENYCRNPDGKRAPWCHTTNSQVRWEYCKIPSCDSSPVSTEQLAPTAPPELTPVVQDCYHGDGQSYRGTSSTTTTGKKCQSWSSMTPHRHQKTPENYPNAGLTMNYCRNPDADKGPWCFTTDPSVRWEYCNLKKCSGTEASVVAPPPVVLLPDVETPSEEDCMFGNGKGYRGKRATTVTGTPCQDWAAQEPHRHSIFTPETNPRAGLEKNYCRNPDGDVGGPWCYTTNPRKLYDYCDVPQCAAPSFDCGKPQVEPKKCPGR
Plasminogen, sequence (P00747 581-810 limits assumed): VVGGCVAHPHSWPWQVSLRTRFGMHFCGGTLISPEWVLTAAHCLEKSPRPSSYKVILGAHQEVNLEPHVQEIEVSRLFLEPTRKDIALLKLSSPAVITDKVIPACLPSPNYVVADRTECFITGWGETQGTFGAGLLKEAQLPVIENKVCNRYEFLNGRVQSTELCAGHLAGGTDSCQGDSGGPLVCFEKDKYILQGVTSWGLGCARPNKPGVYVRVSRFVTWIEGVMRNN

Plasma kallikrein, sequence (P03952 20-390 limits assumed): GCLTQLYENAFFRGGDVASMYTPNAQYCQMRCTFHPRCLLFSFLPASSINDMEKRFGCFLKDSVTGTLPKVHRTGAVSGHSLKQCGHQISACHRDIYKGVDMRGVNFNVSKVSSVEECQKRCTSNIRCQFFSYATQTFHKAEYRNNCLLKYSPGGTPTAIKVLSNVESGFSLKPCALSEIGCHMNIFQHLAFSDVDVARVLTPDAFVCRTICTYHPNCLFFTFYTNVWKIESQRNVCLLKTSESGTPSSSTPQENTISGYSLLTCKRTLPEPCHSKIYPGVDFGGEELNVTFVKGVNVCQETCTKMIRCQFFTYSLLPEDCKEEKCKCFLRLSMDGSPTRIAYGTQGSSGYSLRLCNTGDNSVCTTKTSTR
Plasma kallikrein, sequence (P03952 391-638 limits assumed): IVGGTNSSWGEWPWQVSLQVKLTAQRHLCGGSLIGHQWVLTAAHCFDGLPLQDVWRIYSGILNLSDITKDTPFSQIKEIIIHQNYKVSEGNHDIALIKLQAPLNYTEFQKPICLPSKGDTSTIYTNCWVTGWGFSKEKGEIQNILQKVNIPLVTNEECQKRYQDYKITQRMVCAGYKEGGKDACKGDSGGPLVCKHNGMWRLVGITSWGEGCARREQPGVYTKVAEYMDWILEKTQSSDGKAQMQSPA
Coagulation factor X, sequence (P00742 41-179 limits assumed): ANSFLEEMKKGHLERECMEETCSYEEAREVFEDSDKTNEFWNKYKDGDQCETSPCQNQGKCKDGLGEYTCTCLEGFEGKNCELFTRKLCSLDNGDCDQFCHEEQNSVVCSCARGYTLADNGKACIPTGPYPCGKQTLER
Coagulation factor X, sequence (P00742 235-488 limits assumed): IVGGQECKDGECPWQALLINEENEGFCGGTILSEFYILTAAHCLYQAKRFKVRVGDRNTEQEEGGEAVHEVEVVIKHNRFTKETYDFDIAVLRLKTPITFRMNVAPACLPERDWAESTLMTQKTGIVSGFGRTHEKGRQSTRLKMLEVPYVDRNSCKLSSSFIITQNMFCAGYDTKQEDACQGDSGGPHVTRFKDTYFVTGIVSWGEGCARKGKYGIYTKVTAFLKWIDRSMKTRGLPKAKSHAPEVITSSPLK
Beta-lactamase, sequence (P05364 whole entry): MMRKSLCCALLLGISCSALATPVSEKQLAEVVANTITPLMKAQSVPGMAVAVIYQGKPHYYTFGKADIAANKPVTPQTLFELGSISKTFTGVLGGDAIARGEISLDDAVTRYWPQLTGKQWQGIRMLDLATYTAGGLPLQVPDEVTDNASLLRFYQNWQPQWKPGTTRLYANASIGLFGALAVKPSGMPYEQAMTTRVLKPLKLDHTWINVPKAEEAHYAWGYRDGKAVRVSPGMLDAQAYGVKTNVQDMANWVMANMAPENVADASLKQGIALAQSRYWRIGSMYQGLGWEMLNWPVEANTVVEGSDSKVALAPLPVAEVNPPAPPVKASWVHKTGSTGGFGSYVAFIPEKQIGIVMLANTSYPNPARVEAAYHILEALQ
Tissue-type plasminogen activator, sequence (P00750 whole entry): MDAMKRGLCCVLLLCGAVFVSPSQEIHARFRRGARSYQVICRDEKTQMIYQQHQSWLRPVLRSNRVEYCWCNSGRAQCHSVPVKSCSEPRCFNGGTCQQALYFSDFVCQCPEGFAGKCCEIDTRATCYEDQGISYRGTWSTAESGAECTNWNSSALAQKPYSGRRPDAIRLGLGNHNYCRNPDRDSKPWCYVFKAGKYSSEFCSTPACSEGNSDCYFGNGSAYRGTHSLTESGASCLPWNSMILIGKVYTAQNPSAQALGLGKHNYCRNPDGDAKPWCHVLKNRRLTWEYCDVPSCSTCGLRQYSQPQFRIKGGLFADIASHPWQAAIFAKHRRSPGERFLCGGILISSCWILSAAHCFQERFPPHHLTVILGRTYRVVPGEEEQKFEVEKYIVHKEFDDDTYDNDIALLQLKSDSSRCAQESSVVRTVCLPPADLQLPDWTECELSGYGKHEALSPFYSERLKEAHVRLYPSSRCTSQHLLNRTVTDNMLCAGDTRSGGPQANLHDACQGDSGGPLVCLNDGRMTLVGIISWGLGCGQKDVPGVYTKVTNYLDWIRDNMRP
Coagulation factor XII, sequence (P00748 20-372 limits assumed): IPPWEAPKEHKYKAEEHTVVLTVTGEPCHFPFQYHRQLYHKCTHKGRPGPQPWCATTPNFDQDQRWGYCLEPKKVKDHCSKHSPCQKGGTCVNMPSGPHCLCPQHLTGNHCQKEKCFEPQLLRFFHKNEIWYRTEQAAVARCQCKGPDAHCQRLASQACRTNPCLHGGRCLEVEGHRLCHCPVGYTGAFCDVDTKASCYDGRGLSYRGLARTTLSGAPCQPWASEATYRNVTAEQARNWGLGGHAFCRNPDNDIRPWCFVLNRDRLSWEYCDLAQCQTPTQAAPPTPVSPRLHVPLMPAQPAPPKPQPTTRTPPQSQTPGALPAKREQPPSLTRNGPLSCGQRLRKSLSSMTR
Coagulation factor XII, sequence (P00748 373-615 limits assumed): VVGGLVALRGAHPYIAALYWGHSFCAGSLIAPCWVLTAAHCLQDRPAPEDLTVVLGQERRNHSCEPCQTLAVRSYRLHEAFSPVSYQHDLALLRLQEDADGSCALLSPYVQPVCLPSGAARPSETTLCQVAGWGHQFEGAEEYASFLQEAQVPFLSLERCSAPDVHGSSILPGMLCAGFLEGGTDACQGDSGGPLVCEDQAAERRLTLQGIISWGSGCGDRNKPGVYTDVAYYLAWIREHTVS
Chymase, sequence (P23946 whole entry): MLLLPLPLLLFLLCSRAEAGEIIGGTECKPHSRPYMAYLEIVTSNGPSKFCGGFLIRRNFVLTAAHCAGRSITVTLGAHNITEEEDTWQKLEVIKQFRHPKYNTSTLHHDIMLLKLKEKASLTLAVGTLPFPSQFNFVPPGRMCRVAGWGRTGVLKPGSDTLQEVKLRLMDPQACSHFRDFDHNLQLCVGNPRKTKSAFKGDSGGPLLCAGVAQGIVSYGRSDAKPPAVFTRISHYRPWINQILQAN

## CSCCC(N)C(=O)c1nccs1 (racemic)
[1]
  IC50: 19000 nM

## O=C(CCCc1ccccc1)c1nc2ncccc2o1
[2]
  Selectivity ratio: > 10000
[3]
  Selectivity ratio: 10
[4]
  Selectivity ratio: > 10000
[5]
  Selectivity ratio: > 10000
[6]
  Ki: 6.9 nM

## Cc1cccc(Cc2nnc(C(=O)[C@@H](NC(=O)[C@@H]3CCCN3C(=O)[C@@H](NC(=O)OCc3ccccc3)C(C)C)C(C)C)o2)c1
[7]
  Selectivity ratio: > 1000
[8]
  Selectivity ratio: > 1000
[9]
  Selectivity ratio: > 1000

## O=C(CCCCCCc1ccccc1)c1ncc(-c2ccccn2)o1
Mus musculus
  ED50: 1.9 mg/kg

## N=C(N)N1CCC[C@@H](C[C@H](NC(=O)CN2C(=O)CN(CCCc3ccccc3)C(=O)[C@@H]2Cc2ccccc2)C(=O)c2nccs2)C1
Trypsin
  inhibition: 80%

## CC[C@@H](C=O)NC(=O)[C@@H]1C[C@@H](OCc2ccccc2)CN1C(=O)[C@@H](NC(=O)[C@@H](NC(=O)c1cnccn1)C(C)C)C(C)C (Pyrazinecarbonyl-VV[Hyp](Bn)[Abu]-aldehyde)
[10]
  Ki: 16000 nM

## O=C(C1=NOC(COCc2ccccc2)C1)[C@@H]1CCCN1C(=O)[C@@H]1CCCN1C(=O)OCc1ccccc1 (stereo partly drawn)
[11]
  Ki: 1.2 nM

## Cc1ccc(S(=O)(=O)N[C@@H](CC(=O)NCC(C)(C)C)C(=O)N[C@@H](C)C(=O)N[C@@H](CC(C)C)C(=O)c2nnc(-c3ccccc3)o2)cc1
[12]
  Ki: > 900000 nM
[13]
  Ki: > 300000 nM
PC-3
  IC50: 200 nM

## NCCCC[C@H](NC(=O)C1CCCN(C(=O)CCc2ccccc2)C1)C(=O)c1nc2ccccc2s1 (stereo partly drawn)
[14]
  Selectivity ratio: 30
[15]
  Ki: 0.9 nM
[16]
  Selectivity ratio: 120000

## O=C(Cc1ccccc1)NCC(=O)c1nc(C(=O)O)cs1
Beta-lactamase
  Ki: 110000 nM

## NC(N)=NCCC[C@H](NC(=O)CNC(=O)[C@@H](CCCN=C(N)N)NS(=O)(=O)Cc1ccccc1)C(=O)c1nccs1
Coagulation factor XII
  IC50: 50 nM
Plasma kallikrein
  IC50: 14 nM

## CN[C@H](Cc1ccccc1)C(=O)N1CCC[C@H]1C(=O)N[C@@H](CCCN=C(N)N)C(=O)c1nc2ccccc2s1
[17]
  Selectivity ratio: 23000
Platelet
  IC50: 30 nM
[18]
  Selectivity ratio: 23000
[19]
  Selectivity ratio: 2400
[20]
  Ratio Ki: 15
[21]
  Ki: 6.5 nM
[22]
  Selectivity ratio: 12000

## CC(C)C[C@H](NC(=O)OCc1ccccc1)C(=O)NCC(=O)N1CCC[C@H]1C(=O)c1nc2ccccc2s1
[11]
  IC50: 200 nM

## COC(=O)c1ccc2oc(C(=O)[C@H](Cc3ccccc3)NC(=O)Cn3c(-c4cccc(OC)c4)ncc(N)c3=O)nc2c1
[23]
  Selectivity ratio: 80
[24]
  Selectivity ratio: 200
Chymase
  Ki: 4.8 nM
[25]
  bioavailability: 20%

## NC(N)=NCCC[C@H](NC(=O)CNC(=O)[C@@H](CCCN=C(N)N)NS(=O)(=O)CCc1ccccc1)C(=O)c1nc2ccccc2o1
Coagulation factor X
  IC50: 2 nM
[26]
  IC50: 29 nM
Plasminogen
  IC50: 36 nM
Plasma kallikrein
  IC50: 13 nM
